Target: T1, recombinant full-length human prolyl endopeptidase (PREP) (Homo sapiens, UniProt P48147)
T1 construct: To recombinant full-length human prolyl endopeptidase (PREP, R&D-Systems, 4308-SE); purchased R&D-Systems 4308-SE
T1 sequence (P48147 1-710): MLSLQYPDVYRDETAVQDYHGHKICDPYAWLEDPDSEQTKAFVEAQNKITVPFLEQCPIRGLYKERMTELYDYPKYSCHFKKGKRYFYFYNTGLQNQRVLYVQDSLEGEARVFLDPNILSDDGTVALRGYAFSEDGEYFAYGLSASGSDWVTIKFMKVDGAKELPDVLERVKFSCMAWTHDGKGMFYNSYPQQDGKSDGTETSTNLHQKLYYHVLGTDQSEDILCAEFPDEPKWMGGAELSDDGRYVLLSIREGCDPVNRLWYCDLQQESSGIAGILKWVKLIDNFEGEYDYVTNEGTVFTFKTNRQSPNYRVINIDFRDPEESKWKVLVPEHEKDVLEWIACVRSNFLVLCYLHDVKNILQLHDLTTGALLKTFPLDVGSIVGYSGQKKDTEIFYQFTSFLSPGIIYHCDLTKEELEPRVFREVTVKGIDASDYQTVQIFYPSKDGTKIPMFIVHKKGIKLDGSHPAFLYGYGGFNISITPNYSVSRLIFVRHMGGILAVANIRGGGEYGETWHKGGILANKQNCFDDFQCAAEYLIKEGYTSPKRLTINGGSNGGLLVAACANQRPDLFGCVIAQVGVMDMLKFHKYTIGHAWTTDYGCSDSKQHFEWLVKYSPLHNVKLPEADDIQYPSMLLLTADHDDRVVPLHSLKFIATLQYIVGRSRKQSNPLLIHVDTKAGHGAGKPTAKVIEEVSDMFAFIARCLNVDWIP
Test: Biochemical human prolyl endopeptidase (PREP) assay with fluorescently labelled substrate
Conditions: substrate Z-Gly-Pro-AMC 50 μM, 32° C., 60 min; some as mean values from multiple independent determinations
How it was run: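 0.4 nM (final, example) recombinant PREP in pH 7.5 Tris buffer with EDTA, GSH, BSA and Brij-35; compounds at 1 nM to 30 μM. Reaction started with 50 μM Z-Gly-Pro-AMC and followed by fluorescence (ex 360/em 465 nm) at 32° C for 60 min. IC50 interpolated from percent activity based on initial slopes.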

IC50 [nM]	SMILES
1.9	O=C(C1CCCc2nn(Cc3ccc(Cl)c(C(F)(F)F)c3)c(=O)n21)N1CCC(F)(F)C1 (racemic) [Example 43]
6.9	Cn1ccc(Cn2nc3n(c2=O)C(C(=O)N2CCCC2)CCC3)n1 (racemic) [Example 21, (5RS)-2-[(1-Methyl-1H-pyrazol-3-yl)methyl]-5-(pyrrolidin-1-ylcarbonyl)-5,6,7,8-tetrahydro[1,2,4]triazolo[4,3-a]pyridin-3(2H)-one]
15	O=C(C1C(C(F)(F)F)CCc2nn(Cc3ccc(Cl)cn3)c(=O)n21)N1CC(F)C1 (racemic) [Example 310, (5RS,6RS)-2-[(5-Chloropyridin-2-yl)methyl]-5-[(3-fluoroazetidin-1-yl)carbonyl]-6-(trifluoromethyl)-5,6,7,8-tetrahydro[1,2,4]triazolo[4,3-a]pyridin-3(2H)-one]
0.3	O=C([C@@H]1CCCc2nn(CC3(c4ccc(C(F)(F)F)cc4)CC3)c(=O)n21)N1CC[C@H](F)C1 [Example 356, (5S)-5-{[(3S)-3-Fluoropyrrolidin-1-yl]carbonyl}-2-({1-[4-(trifluoromethyl)phenyl]cyclopropyl}methyl)-5,6,7,8-tetrahydro[1,2,4]triazolo[4,3-a]pyridin-3(2H)-one]
0.245	O=C([C@@H]1CCCc2nn(Cc3ccc(C(F)(F)F)c(F)c3)c(=O)n21)N1C[C@@H](F)[C@@H](F)C1 [Example 472, (5S)-5-{[(3R,4S)-3,4-Difluoropyrrolidin-1-yl]carbonyl}-2-[3-fluoro-4-(trifluoromethyl)benzyl]-5,6,7,8-tetrahydro[1,2,4]triazolo[4,3-a]pyridin-3(2H)-one]
0.89	O=C(C1CCc2nn(Cc3ccc(F)c(Cl)c3)c(=O)n21)N1CC[C@H](F)C1 (mixture of isomers) [Example 165, (5RS)-2-(3-Chloro-4-fluorobenzyl)-5-{[(3S)-3-fluoropyrrolidin-1-yl]carbonyl}-2,5,6,7-tetrahydro-3H-pyrrolo[2,1-c][1,2,4]triazol-3-one]
18	O=C([C@@H]1CCCc2nn(Cc3cc(C(F)(F)F)nc4ccccc34)c(=O)n21)N1CC[C@H](O)C1 [Example 496, (5S)-5-{[(3S)-3-Hydroxypyrrolidin-1-yl]carbonyl}-2-{[2-(trifluoromethyl)quinolin-4-yl]methyl}-5,6,7,8-tetrahydro[1,2,4]triazolo[4,3-a]pyridin-3(2H)-one]
2.3	CCn1nc(C(F)(F)F)cc1Cn1nc2n(c1=O)[C@H](C(=O)N1CC(F)C1)CCC2 [Example 363, (5S)-2-{[1-Ethyl-3-(trifluoromethyl)-1H-pyrazol-5-yl]methyl}-5-[(3-fluoroazetidin-1-yl)carbonyl]-5,6,7,8-tetrahydro[1,2,4]triazolo[4,3-a]pyridin-3(2H)-one]
600	O=C(C1CCc2nn(Cc3ccnc(C(F)(F)F)c3F)c(=O)n21)N1CC[C@H](F)C1 (single isomer, unassigned) [Example 179]
5.2	O=C(C1CCCc2nn(CC3CCC(C(F)(F)F)CC3)c(=O)n21)N1CCCC1 (racemic) [Example 40, (5RS)-5-(Pyrrolidin-1-ylcarbonyl)-2-{[4-(trifluoromethyl)cyclohexyl]methyl}-5,6,7,8-tetrahydro[1,2,4]triazolo[4,3-a]pyridin-3(2H)-one]
0.19	O=C([C@@H]1CCCc2nn(Cc3cccc(C(F)(F)F)c3)c(=O)n21)N1CC[C@H](F)C1 [Example 444, (5S)-5-{[(3S)-3-Fluoropyrrolidin-1-yl]carbonyl}-2-[3-(trifluoromethyl)benzyl]-5,6,7,8-tetrahydro[1,2,4]triazolo[4,3-a]pyridin-3(2H)-one]
0.51	O=C([C@@H]1CCCc2nn(Cc3ccc(C(F)(F)F)c(Cl)c3)c(=O)n21)N1C[C@@H](F)[C@@H](F)C1 [Example 458, (5S)-2-[3-Chloro-4-(trifluoromethyl)benzyl]-5-{[(3R,4S)-3,4-difluoropyrrolidin-1-yl]carbonyl}-5,6,7,8-tetrahydro[1,2,4]triazolo[4,3-a]pyridin-3(2H)-one]
10	Cc1ccc(Cn2nc3n(c2=O)C(C(=O)N2CCC4(C2)CC4(F)F)CCC3)cc1 (single isomer, unassigned) [Example 129, (5RS)-{[(3RS)-1,1-Difluoro-5-azaspiro[2.4]hept-5-yl]carbonyl}-2-(4-methylbenzyl)-5,6,7,8-tetrahydro[1,2,4]triazolo[4,3-a]pyridin-3(2H)-one]
0.44	O=C([C@@H]1CCCc2nn(Cc3cc(C(F)(F)F)nc4ccc(F)cc34)c(=O)n21)N1CCCC1 [Example 498, (5S)-2-{[6-Fluoro-2-(trifluoromethyl)quinolin-4-yl]methyl}-5-(pyrrolidin-1-ylcarbonyl)-5,6,7,8-tetrahydro[1,2,4]triazolo[4,3-a]pyridin-3(2H)-one]
2.65	O=C([C@@H]1CCCc2nn(Cc3ccnc(C(F)(F)F)c3F)c(=O)n21)N1CC[C@@H](F)C1 [Example 478, (5S)-5-{[(3R)-3-Fluoropyrrolidin-1-yl]carbonyl}-2-{[3-fluoro-2-(trifluoromethyl)pyridin-4-yl]methyl}-5,6,7,8-tetrahydro[1,2,4]triazolo[4,3-a]pyridin-3(2H)-one]
1.1	CC1CCC(C(=O)N2CC[C@H](F)C2)n2c1nn(Cc1ccc(C(F)(F)F)nc1)c2=O (single isomer, unassigned) [Example 222]
0.375	Cc1ccc(Cn2nc3n(c2=O)[C@H](C(=O)N2CC[S+]([O-])C2)CCC3)cc1 (single isomer, unassigned) [Example 194]
4	Cc1ccccc1Cn1nc2n(c1=O)C(C(=O)N1CCCC1)CCC2 (racemic) [Example 58, (5RS)-2-(2-Methylbenzyl)-5-(pyrrolidin-1-ylcarbonyl)-5,6,7,8-tetrahydro[1,2,4]triazolo[4,3-a]pyridin-3(2H)-one]
4.9	Cc1[nH]cnc1Cn1nc2n(c1=O)C(C(=O)N1CCCC1)CCC2 (racemic) [Example 24, (5RS)-2-[(5-Methyl-1H-imidazol-4-yl)methyl]-5-(pyrrolidin-1-ylcarbonyl)-5,6,7,8-tetrahydro[1,2,4]triazolo[4,3-a]pyridin-3(2H)-one]
2	Cn1c(Cn2nc3n(c2=O)C(C(=O)N2CCCC2)CCC3)nc2ccccc21 (racemic) [Example 62, (5RS)-2-[(1-Methyl-1H-benzimidazol-2-yl)methyl]-5-(pyrrolidin-1-ylcarbonyl)-5,6,7,8-tetrahydro[1,2,4]triazolo[4,3-a]pyridin-3(2H)-one]
1.15	O=C(C1CCc2nn(Cc3ccc(F)c(Cl)c3)c(=O)n21)N1C[C@@H](F)[C@@H](F)C1 (mixture of isomers) [Example 174, (5RS)-2-(3-Chloro-4-fluorobenzyl)-5-{[(3R,4S)-3,4-difluoropyrrolidin-1-yl)carbonyl]-2,5,6,7-tetrahydro-3H-pyrrolo[2,1-c][1,2,4]triazol-3-one]
5.9	O=C(C1CCC(C(F)(F)F)c2nn(Cc3ncccc3F)c(=O)n21)N1C[C@@H](F)[C@@H](F)C1 (mixture of isomers) [Example 274, (5RS,8RS)-5-{[(3R,4S)-3,4-Difluoropyrrolidin-1-yl]carbonyl}-2-[(3-fluoropyridin-2-yl)methyl]-8-(trifluoromethyl)-5,6,7,8-tetrahydro[1,2,4]triazolo[4,3-a]pyridin-3(2H)-one]

Reference: patent publication US10722501B2 (BAYER AKTIENGESELLSCHAFT, priority 2016, dated 2020)
